In ChEMBL document CHEMBL1140350, “The endocannabinoid system: drug targets, lead compounds, and potential therapeutic applications” (J Med Chem, 2005) one finds IC50, Ki and inhibition data, which are given here for 45 compounds.

In general, IC50 refers to the concentration that inhibits the measured activity by half. A word on the inhibition: it is the share of the control response that was lost under treatment.

Assay [1] concerns the target T1, Fatty-acid amide hydrolase 1 (Homo sapiens, UniProt O00519).
T1 sequence (O00519 whole entry): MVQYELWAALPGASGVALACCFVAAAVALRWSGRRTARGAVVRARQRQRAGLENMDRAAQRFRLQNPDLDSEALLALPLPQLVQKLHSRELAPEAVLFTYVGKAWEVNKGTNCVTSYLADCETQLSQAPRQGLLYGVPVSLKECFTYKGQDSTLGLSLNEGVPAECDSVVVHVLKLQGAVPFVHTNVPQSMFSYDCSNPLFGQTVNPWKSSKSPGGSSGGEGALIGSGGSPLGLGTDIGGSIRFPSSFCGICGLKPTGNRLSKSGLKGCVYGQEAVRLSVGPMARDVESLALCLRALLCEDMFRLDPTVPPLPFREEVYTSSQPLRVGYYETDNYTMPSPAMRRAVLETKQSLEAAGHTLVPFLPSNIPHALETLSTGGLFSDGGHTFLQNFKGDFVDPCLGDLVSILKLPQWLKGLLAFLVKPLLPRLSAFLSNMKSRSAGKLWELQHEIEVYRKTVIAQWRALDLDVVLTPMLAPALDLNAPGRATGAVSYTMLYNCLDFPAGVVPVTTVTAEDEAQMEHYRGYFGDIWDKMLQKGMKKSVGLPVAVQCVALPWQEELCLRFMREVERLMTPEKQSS
Description: Inhibitory concentration against fatty acid amide hydrolase.

Assay [2] concerns the target T1, Fatty-acid amide hydrolase 1. Description: Inhibition of fatty acid amide hydrolase; range = 4.1-7 uM.
The species named for assay [3] is Mus musculus. Description: Concentration required to inhibit anandamide uptake from the extracellular medium into cells. It counts as functional, cell-based.
The target of assay [4] is Cannabinoid receptor (Homo sapiens, UniProt P34972+P21554). In words: Binding affinity for Cannabinoid receptor. The assay is classed as protein assay.
Assay [5] deals with T2, Cannabinoid receptor 1 (Rattus norvegicus, UniProt P20272). Description: Inhibition of [3H]CP-55940 binding to rat cannabinoid receptor 1.
T2 sequence (P20272 whole entry): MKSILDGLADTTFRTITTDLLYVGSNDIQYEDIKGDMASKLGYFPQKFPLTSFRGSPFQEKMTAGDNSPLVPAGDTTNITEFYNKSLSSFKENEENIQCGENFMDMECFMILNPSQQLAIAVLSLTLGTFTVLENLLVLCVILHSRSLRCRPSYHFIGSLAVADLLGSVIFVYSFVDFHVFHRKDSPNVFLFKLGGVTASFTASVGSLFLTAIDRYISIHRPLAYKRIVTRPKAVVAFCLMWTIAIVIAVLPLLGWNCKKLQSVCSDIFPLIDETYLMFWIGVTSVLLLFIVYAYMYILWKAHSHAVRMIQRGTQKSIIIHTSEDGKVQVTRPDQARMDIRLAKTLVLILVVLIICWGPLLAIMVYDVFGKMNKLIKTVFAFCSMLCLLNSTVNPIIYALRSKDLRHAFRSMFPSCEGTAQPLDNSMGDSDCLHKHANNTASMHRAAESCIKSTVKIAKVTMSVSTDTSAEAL
The target of assay [6] is T3, N-acylethanolamine-hydrolyzing acid amidase (Homo sapiens, UniProt Q02083).
T3 sequence (Q02083 whole entry): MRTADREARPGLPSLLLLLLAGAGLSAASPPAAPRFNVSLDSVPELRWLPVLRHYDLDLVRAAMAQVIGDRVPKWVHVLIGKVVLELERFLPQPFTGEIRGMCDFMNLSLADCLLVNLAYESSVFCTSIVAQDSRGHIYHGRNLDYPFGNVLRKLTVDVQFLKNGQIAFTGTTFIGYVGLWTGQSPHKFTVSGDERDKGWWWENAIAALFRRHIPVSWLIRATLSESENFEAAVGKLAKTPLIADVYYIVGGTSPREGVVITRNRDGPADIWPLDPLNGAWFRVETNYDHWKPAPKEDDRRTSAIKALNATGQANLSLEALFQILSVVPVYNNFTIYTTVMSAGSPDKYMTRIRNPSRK
Description: Inhibitory concentration against N-palmitoylethanolamine acid amidase.

Assay [7] addresses T1, Fatty-acid amide hydrolase 1. In words: Binding affinity for fatty acid amide hydrolase.
Assay [8] concerns the target Cannabinoid receptor 1 (Homo sapiens, UniProt P21554). In words: (§1) Binding affinity for cannabinoid receptor 1.
Assay [9] has as its target T4, Monoglyceride lipase (Homo sapiens, UniProt Q99685).
T4 sequence (Q99685 whole entry): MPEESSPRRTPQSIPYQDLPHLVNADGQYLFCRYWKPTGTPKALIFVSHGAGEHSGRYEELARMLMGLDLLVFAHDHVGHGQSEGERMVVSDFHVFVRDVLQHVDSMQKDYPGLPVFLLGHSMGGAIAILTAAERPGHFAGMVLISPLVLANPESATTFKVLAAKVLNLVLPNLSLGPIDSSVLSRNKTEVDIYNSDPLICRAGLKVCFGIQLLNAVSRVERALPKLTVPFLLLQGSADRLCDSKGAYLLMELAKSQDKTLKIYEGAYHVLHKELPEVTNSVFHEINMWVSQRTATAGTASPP
In words: Inhibitory concentration against monoacylglycerol lipase.

Assay [10] deals with T1, Fatty-acid amide hydrolase 1. Description: Apparent binding affinity for fatty acid amide hydrolase.
Assay [11] concerns the target T5, N-acylethanolamine-hydrolyzing acid amidase (Homo sapiens) (UniProt Q02083).
T5 sequence (whole entry): T3 sequence (Q02083 whole entry)
In words: Percent inhibition aganist N-palmitoylethanolamine acid amidase at 10 uM.

The nature of assay [12]: Binding affinity for cannabinoid receptor 2.
The target in assay [13] is T1, Fatty-acid amide hydrolase 1. In words: Irreversible inhibition of fatty acid amide hydrolase; range=. 5-6 nM.
Assay [14] deals with T2, Cannabinoid receptor 1. Described as §1.
The target in assay [15] is T1, Fatty-acid amide hydrolase 1. Description: Irreversible inhibition of fatty acid amide hydrolase.
Assay [16] concerns the target T6, Fatty-acid amide hydrolase 1 (Mus musculus) (UniProt O08914).
T6 sequence (whole entry): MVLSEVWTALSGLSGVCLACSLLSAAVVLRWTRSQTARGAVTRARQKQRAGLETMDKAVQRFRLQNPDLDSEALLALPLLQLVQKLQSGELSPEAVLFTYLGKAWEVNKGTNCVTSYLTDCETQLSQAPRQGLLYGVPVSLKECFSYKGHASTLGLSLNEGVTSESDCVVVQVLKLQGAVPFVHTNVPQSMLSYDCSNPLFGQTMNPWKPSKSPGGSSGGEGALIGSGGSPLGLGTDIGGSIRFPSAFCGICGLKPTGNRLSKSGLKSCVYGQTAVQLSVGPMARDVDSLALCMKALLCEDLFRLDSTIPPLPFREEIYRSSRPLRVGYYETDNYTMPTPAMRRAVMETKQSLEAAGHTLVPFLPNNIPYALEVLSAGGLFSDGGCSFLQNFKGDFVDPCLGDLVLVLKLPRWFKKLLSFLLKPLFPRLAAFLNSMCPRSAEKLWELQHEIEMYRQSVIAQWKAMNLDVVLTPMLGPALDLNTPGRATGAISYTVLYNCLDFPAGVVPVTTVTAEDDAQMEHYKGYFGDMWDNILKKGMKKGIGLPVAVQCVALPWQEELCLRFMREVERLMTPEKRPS
Description: Inhibitory potency against fatty acid amide hydrolase activity in mouse brain microsomes in presence of 58 uM anandamide at 160 uM. It counts as functional. Particulars: Microsome.

The target in assay [17] is T1, Fatty-acid amide hydrolase 1. In words: Inhibition of fatty acid amide hydrolase; range =. 23-3 uM.
Assay [18] shares this target. In words: Binding affinity for human fatty acid amide hydrolase.
For assay [19], the species on record is Homo sapiens. Description: Concentration required to inhibit anandamide uptake into human monocytes. The assay is classed as functional.

Sequence of Cannabinoid receptor 1 (Homo sapiens, UniProt P21554) (P21554 whole entry): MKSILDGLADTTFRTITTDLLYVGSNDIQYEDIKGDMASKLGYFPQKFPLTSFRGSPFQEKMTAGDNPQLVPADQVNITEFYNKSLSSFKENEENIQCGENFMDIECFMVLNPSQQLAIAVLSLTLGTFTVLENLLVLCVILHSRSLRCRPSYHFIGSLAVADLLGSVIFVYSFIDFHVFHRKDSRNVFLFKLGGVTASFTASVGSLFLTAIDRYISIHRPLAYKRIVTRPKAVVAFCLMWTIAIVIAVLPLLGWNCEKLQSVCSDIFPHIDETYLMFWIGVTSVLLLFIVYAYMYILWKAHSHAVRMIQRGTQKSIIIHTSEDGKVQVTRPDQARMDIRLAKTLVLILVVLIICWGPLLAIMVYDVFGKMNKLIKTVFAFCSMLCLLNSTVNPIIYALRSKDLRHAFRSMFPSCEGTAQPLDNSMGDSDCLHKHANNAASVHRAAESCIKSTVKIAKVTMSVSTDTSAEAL

`CCCCC/C=C\C/C=C\C/C=C\C/C=C\CCCC(=O)NCCc1c[nH]c2ccc(O)cc12` had a concentration for half-maximal inhibition (IC50) in assay [1] of 12 µM.

`CCCCC/C=C\C/C=C\C/C=C\C/C=C\CCCC(=O)NCC(=O)O` [ARACHIDONOYL GLYCINE] had an IC50 in assay [2] of 7 µM. That is a single-digit micromolar value.

Turning to `CCCCC/C=C\C/C=C\C/C=C\C/C=C\CCCC(=O)Nc1ccc(O)cc1`, the IC50 in [3] was ~10 µM.

On to `CCCCCC[C@@H](C)OC(=O)CC(=O)CBr`, for which, in assay [4], the Ki was 0.8 µM.

`CCCCCCCC/C=C\CCCCCCCC(N)=O` [OLEAMIDE] returned a Ki in [5] of 1.14 µM.

In the case of `CCCCCCCCCCCCCCCC(=O)OC1CCCCC1` [CYCLOHEXYL PALMITATE], the IC50 in [6] turned out to be 19 µM.

In assay [1], `CCCCC/C=C\C/C=C\CC/C=C\CCCC(=O)NCCc1ccc(O)c(O)c1` returned an IC50 of 19 µM.

`CCCCC/C=C\C/C=C\C/C=C\C/C=C\CCCC(=O)c1nc2ncccc2o1` registered a Ki in [7] of 0.001 µM.

With `O=C(CCCCCCCc1ccccc1)C(F)(F)F`, the Ki in assay [7] was 0.025 µM.

Regarding `CCCCCCCC/C=C\CCCCCCC(C)C(=O)c1nc2ncccc2o1` (stereo not drawn), the Ki in assay [7] is 0.0091 µM.

On to `CCCCCCCCCCC[C@@H](C[C@@H]1OC(=O)[C@H]1CCCCCC)OC(=O)[C@H](CC(C)C)NC=O` [ORLISTAT], for which the IC50 in assay [8] is ≤ 0.1 µM.

Regarding `CCCCC/C=C\C/C=C\C/C=C\C/C=C\CCCC(=O)OCCO`, the values for the IC50 in assay [9] and in assay [1] were 25 µM and > 25 µM, respectively.

`CCCCCCCc1ccc(CCCCCCC(=O)C(F)(F)F)cc1`: the Ki in assay [10] came to 0.096 µM.

Take `CCCCCCCCCCCCCCCNC(=O)c1ccccc1`: the inhibition in assay [11] was found to be 61%.

Compound `CCCCCCC(C)(C)c1ccc([C@@H]2C[C@H](O)CC[C@H]2CCCO)c(O)c1` [CP-55940] displayed a Ki in assay [12] of 0.0026 µM.

On to `CCCCC/C=C\C/C=C\C/C=C\C/C=C\CCCC(=O)[CH-][N+]#N`, for which the IC50 in assay [13] turned out to be 0.006 µM.

Turning to `CCCCC/C=C\C/C=C\C/C=C\C/C=C\CCCC(=O)OCCN`, the figures for the Ki in assay [14] and in assay [12] were 1.9 µM and 1.4 µM, respectively.

In assay [6], `CCCCCCCCCCCCCCCCOC(=O)CC` [HEXADECYLPROPIONATE] yielded an IC50 of 32 µM.

`O=C1O/C(=C/Br)CCC1c1cccc2ccccc12` (stereo not drawn) [BROMOENOL LACTONE] yielded an IC50 in assay [15] of 0.8 µM. In other words, the sub-micromolar range.

In [15], `O=S(=O)(F)Cc1ccccc1` [PHENYLMETHYLSULFONYLFLUORIDE] displayed an IC50 of 13 µM. This IC50 is about 16-fold higher than that of the compound before.

Consider `CCCCCc1cc(O)c2c(c1)OC(C)(C)[C@@H]1CCC(C)=C[C@@H]21` [DRONABINOL], for which the inhibition in assay [16] is 31%. In [12], this compound gave a Ki of 0.02 µM.

In turn, `CCCCCCCC/C=C\CCCCCCCC(=O)C(F)(F)F` returned a Ki in assay [7] of 0.0012 µM.

For the compound `CCCCC/C=C\C/C=C\C/C=C\C/C=C\CCCC(=O)C(F)(F)F` [ARACHIDONYL TRIFLUOROMETHYLKETONE], half-maximal inhibition in [17] (IC50) was put at 3 µM.

Consider `C=C(C)[C@@H]1CCC(C)=C[C@H]1c1c(O)cc(CCCCC)cc1O`, for which, in assay [16], the inhibition is 66%.

With `O=C(CCCCCc1ccccc1)c1nc2ncccc2o1`, the Ki in assay [18] is 94 pM.

On to `CCCCCc1cc(O)c2c(c1)OC(C)(C)c1ccc(C)cc1-2`, for which, in [16], the inhibition was determined as 46%.

In the case of `CCCCCCCCCCCCCCCNC(=O)COC(C)=O` [ACETIC ACID PENTADECYLCARBAMOYLMETHYL ESTER], the IC50 in [1] was found to be 8 µM.

For the compound `CCCCC/C=C\C/C=C\C/C=C\C/C=C\CCCC(=O)NCCc1ccc(O)c(O)c1` [ARACHIDONOYL DOPAMINE], the Ki in assay [14] was 0.25 µM; in [12], 0.012 µM.

For the compound `CCCCC/C=C\C/C=C\C/C=C\C/C=C\CCC(C)C(=O)OCC(O)CO` (stereo not drawn), the IC50 in [9] and in assay [1] was ~11 µM throughout.

`CC(C)(/C=C\C/C=C\C/C=C\C/C=C\CCCC(=O)OCC(O)CO)CCCCC#N` (stereo not drawn): the IC50 in assay [9] and in assay [1] was ~11 µM in each case.

`CCCCCCCCCCCCCCCNC(=O)C1CCCCC1` [CYCLOHEXANECARBOXYLIC ACID PENTADECYLAMIDE]: the inhibition in assay [11] stood at 66%. This compound also displayed a half-inhibitory concentration (IC50) in assay [6] of 4.5 µM.

Take `CCCCC/C=C\C/C=C\C/C=C\C/C=C\CCCC(=O)NCCO` [ANANDAMIDE]: the Ki in assay [12] was found to be 0.37 µM.

Consider `CCCCCCCCCCCCCCCNC(=O)CCO`, for which 54 µM corresponded to half-maximal inhibition in [6] (IC50).

In assay [19], `C=CCOc1ccc(CN(C/C=C/c2ccccc2)CCCC)cc1` gave an IC50 of 0.09 µM.

For `CC(C)(/C=C\C/C=C\C/C=C\C/C=C\CCCC(=O)OCC(O)CO)CCCCO` (stereo not drawn), the half-inhibitory concentration (IC50) in [9] and in [1] was ~11 µM each time.

Consider `CCCCCCCC/C=C\CCCCCCCC(=O)c1nc2ncccc2o1`, for which the Ki in assay [7] turned out to be 0.0023 µM.

As to `CCCCC/C=C\C/C=C\C/C=C\C/C=C\CCCCS(=O)(=O)F`, the IC50 in [15] came out at 0.0001 µM.

`CCCCC/C=C\C/C=C\C/C=C\C/C=C\CCCCOC(CO)CO`: the Ki in [14] amounted to 0.021 µM.

In assay [12], `Cc1c(C(=O)c2cccc3ccccc23)c2cccc3c2n1[C@H](CN1CCOCC1)CO3` [WIN-552122] displayed a Ki of 0.0018 µM.

In assay [15], `CCCCCCCCCCCCCCCCCCS(=O)(=O)F` [OCTADECANESULFONYL FLUORIDE] showed an IC50 of 0.004 µM.

With `CCCCCCCCCCCCCCCC(=O)NCC(=O)OC`, the concentration for half-maximal inhibition (IC50) in [1] worked out at 10 µM.

In [1], `O=C(CCCCCCc1ccccc1)c1nc2ncccc2o1` showed an IC50 of 0.0021 µM.

`CCCCCCCCCCCCCCCC(=O)NC(C)C` [HEXADECANOIC ACID ISOPROPYLAMIDE] yielded an IC50 in [1] of 0.013 µM.

In the case of `CC(C)c1cccc(C(C)C)c1O` [PROPOFOL], the concentration for half-maximal inhibition (IC50) in [1] came out at 52 µM.

Compound `CCCCCCCCCCCCS(=O)(=O)F` [DODECANESULFONYL FLUORIDE] displayed an IC50 in assay [15] of 0.003 µM. This lies in the single-digit nanomolar range.
